Results from US20200338084A1, “INHIBITORS OF LOW MOLECULAR WEIGHT PROTEIN TYROSINE PHOSPHATASE (LMPTP) AND USES THEREOF” (Sanford Burnham Prebys Medical Discovery Institute, priority 2018, published 2020).

target: T1, human LMPTP-A (Homo sapiens, UniProt P24666); test: Enzyme Assay of Inhibition of LMPTP-A; assay type: biochemical; conditions: phosphatase assay, OMFP or pNPP substrate, 50 mM Bis-Tris pH 6.0, 37° C.
T1 sequence (P24666 1-158): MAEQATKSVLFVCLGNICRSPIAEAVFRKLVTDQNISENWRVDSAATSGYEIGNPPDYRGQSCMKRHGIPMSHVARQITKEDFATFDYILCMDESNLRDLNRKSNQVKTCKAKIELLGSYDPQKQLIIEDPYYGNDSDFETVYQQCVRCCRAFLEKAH
Summary of the method: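 Recombinant human LMPTP-A in 50 mM Bis-Tris pH 6.0, 1 mM DTT, 0.01% Triton X-100 at 37° C. Substrate OMFP read continuously by fluorescence (485/525 nm), or pNPP stopped with NaOH and read at 405 nm. IC50 taken from inhibitor concentration versus % activity plots.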

**Q.** Which IC50 does the source give for `CC(=O)Nc1ncn(Cc2c(Cl)cccc2Cl)c2ncnc1-2` [N-[3-(2,6-Dichloro-benzyl)-3 H-purin-6-yl]-acetamide] here?
**A.** Its IC50 is 1 to 20 µM.

**Q.** `CCC(=O)Nc1ncn(Cc2c(Cl)cccc2Cl)c2ncnc1-2` [N-[3-(2,6-Dichloro-benzyl)-3 H-purin-6-yl]-propionamide] was tested. Which IC50 did it give?
**A.** The IC50 was 1 to 20 µM.

**Q.** Which IC50 does the source give for `O=C(Nc1ncn(Cc2c(Cl)cccc2Cl)c2ncnc1-2)c1ccccc1` [N-[3-(2,6-Dichloro-benzyl)-3H-purin-6-yl]-benzamide] here?
**A.** The IC50 was no less than 20 µM.

**Q.** `O=C(Nc1ncn(Cc2c(Cl)cccc2Cl)c2ncnc1-2)c1ccncc1` [N-[3-(2,6-Dichloro-benzyl)-3H-purin-6-yl]-isonicotinamide] was tested. Which IC50 did it give?
**A.** Its IC50 is no more than 1 µM.

**Q.** Which IC50 does the source give for `O=C(Nc1ncn(Cc2c(Cl)cccc2Cl)c2ncnc1-2)c1ccccn1` [Pyridine-2-carboxylic acid [3-(2,6-dichloro-benzyl)-3H-purin-6-yl]-amide] here?
**A.** The IC50 was 1 to 20 µM.

**Q.** How did the IC50 turn out when `Clc1ccc(Cn2cnc(NCc3ccco3)c3ncnc2-3)c(Cl)c1` [[3-(2,4-Dichloro-benzyl)-3H-purin-6-yl]-furan-2-ylmethyl-amine] was run?
**A.** Its IC50 is no less than 20 µM.

**Q.** Which IC50 does the source give for `Clc1ccc(Cl)c(Cn2cnc(NCc3ccco3)c3ncnc2-3)c1` [[3-(2,5-Dichloro-benzyl)-3H-purin-6-yl]-furan-2-ylmethyl-amine] here?
**A.** Its IC50 is 1 to 20 µM.

**Q.** With `Fc1ccccc1CNc1ncn(Cc2c(Cl)cccc2Cl)c2ncnc1-2` [[3-(2,6-Dichloro-benzyl)-3H-purin-6-yl]-(2-fluoro-benzyl)-amine] as the compound, how does the IC50 read?
**A.** Its IC50 is 1 to 20 µM.

**Q.** Which IC50 does the source give for `COCCNc1ncn(Cc2c(Cl)cccc2Cl)c2ncnc1-2` [[3-(2,6-Dichloro-benzyl)-3H-purin-6-yl]-(2-methoxy-ethyl)-amine] here?
**A.** The IC50 was 1 to 20 µM.

**Q.** For `Fc1cccc(CNc2ncn(Cc3c(Cl)cccc3Cl)c3ncnc2-3)c1` [[3-(2,6-Dichloro-benzyl)-3H-purin-6-yl]-(3-fluoro-benzyl)-amine], which IC50 is on record?
**A.** The IC50 was 1 to 20 µM.

**Q.** How did the IC50 turn out when `COCCCNc1ncn(Cc2c(Cl)cccc2Cl)c2ncnc1-2` [[3-(2,6-Dichloro-benzyl)-3H-purin-6-yl]-(3-methoxy-propyl)-amine] was run?
**A.** Its IC50 is 1 to 20 µM.

**Q.** With `Fc1ccc(CNc2ncn(Cc3c(Cl)cccc3Cl)c3ncnc2-3)cc1` [[3-(2,6-Dichloro-benzyl)-3H-purin-6-yl]-(4-fluoro-benzyl)-amine] as the compound, how does the IC50 read?
**A.** Its IC50 is 1 to 20 µM.

**Q.** For `Cc1ccc(CNc2ncn(Cc3c(Cl)cccc3Cl)c3ncnc2-3)cc1` [[3-(2,6-Dichloro-benzyl)-3H-purin-6-yl]-(4-methyl-benzyl)-amine], which IC50 is on record?
**A.** The IC50 was 1 to 20 µM.

**Q.** `CN(C)c1ncn(Cc2c(Cl)cccc2Cl)c2ncnc1-2` [[3-(2,6-Dichloro-benzyl)-3H-purin-6-yl]-dimethyl-amine] was tested. Which IC50 did it give?
**A.** The IC50 was no less than 20 µM.

**Q.** How did the IC50 turn out when `CCNc1ncn(Cc2c(Cl)cccc2Cl)c2ncnc1-2` [[3-(2,6-Dichloro-benzyl)-3H-purin-6-yl]-ethyl-amine] was run?
**A.** The IC50 was 1 to 20 µM.

**Q.** For `Clc1cccc(Cl)c1Cn1cnc(NCc2ccco2)c2ncnc1-2` [[3-(2,6-Dichloro-benzyl)-3H-purin-6-yl]-furan-2-ylmethyl-amine], which IC50 is on record?
**A.** The IC50 was 1 to 20 µM.

**Q.** With `CNc1ncn(Cc2c(Cl)cccc2Cl)c2ncnc1-2` [[3-(2,6-Dichloro-benzyl)-3H-purin-6-yl]-methyl-amine] as the compound, how does the IC50 read?
**A.** The IC50 was 1 to 20 µM.

**Q.** `Clc1cccc(Cl)c1Cn1cnc(NCc2cnco2)c2ncnc1-2` [[3-(2,6-Dichloro-benzyl)-3H-purin-6-yl]-oxazol-5-ylmethyl-amine] was tested. Which IC50 did it give?
**A.** The IC50 was 1 to 20 µM.

**Q.** How did the IC50 turn out when `CCCCCNc1ncn(Cc2c(Cl)cccc2Cl)c2ncnc1-2` [[3-(2,6-Dichloro-benzyl)-3H-purin-6-yl]-pentyl-amine] was run?
**A.** The IC50 was 1 to 20 µM.

**Q.** `CCCNc1ncn(Cc2c(Cl)cccc2Cl)c2ncnc1-2` [[3-(2,6-Dichloro-benzyl)-3H-purin-6-yl]-propyl-amine] was tested. Which IC50 did it give?
**A.** The IC50 was 1 to 20 µM.

**Q.** Which IC50 does the source give for `Clc1cccc(Cl)c1Cn1cnc(NCc2ccccn2)c2ncnc1-2` [[3-(2,6-Dichloro-benzyl)-3H-purin-6-yl]-pyridin-2-ylmethyl-amine] here?
**A.** The IC50 was 1 to 20 µM.

**Q.** Which IC50 does the source give for `Clc1cccc(Cl)c1Cn1cnc(NCc2cccnc2)c2ncnc1-2` [[3-(2,6-Dichloro-benzyl)-3H-purin-6-yl]-pyridin-3-ylmethyl-amine] here?
**A.** Its IC50 is 1 to 20 µM.

**Q.** How did the IC50 turn out when `Clc1cccc(Cl)c1Cn1cnc(NCc2ccncc2)c2ncnc1-2` [[3-(2,6-Dichloro-benzyl)-3H-purin-6-yl]-pyridin-4-ylmethyl-amine] was run?
**A.** Its IC50 is 1 to 20 µM.

**Q.** Which IC50 does the source give for `Clc1cccc(Cl)c1Cn1cnc(NCc2cccs2)c2ncnc1-2` [[3-(2,6-Dichloro-benzyl)-3H-purin-6-yl]-thiophen-2-ylmethyl-amine] here?
**A.** The IC50 was 1 to 20 µM.

**Q.** With `Fc1cccc(F)c1Cn1cnc(NCc2ccco2)c2ncnc1-2` [[3-(2,6-Difluoro-benzyl)-3H-purin-6-yl]-furan-2-ylmethyl-amine] as the compound, how does the IC50 read?
**A.** The IC50 was 1 to 20 µM.

**Q.** Which IC50 does the source give for `Brc1ccccc1Cn1cnc(NCc2ccco2)c2ncnc1-2` [[3-(2-Bromo-benzyl)-3H-purin-6-yl]-furan-2-ylmethyl-amine] here?
**A.** The IC50 was 1 to 20 µM.

**Q.** With `Fc1cccc(Cl)c1Cn1cnc(NCc2ccco2)c2ncnc1-2` [[3-(2-Chloro-6-fluoro-benzyl)-3H-purin-6-yl]-furan-2-ylmethyl-amine] as the compound, how does the IC50 read?
**A.** Its IC50 is 1 to 20 µM.

**Q.** With `Clc1ccccc1Cn1cnc(NCc2ccco2)c2ncnc1-2` [[3-(2-Chloro-benzyl)-3H-purin-6-yl]-furan-2-ylmethyl-amine] as the compound, how does the IC50 read?
**A.** The IC50 was no less than 20 µM.

**Q.** How did the IC50 turn out when `Fc1ccccc1Cn1cnc(NCc2ccco2)c2ncnc1-2` [[3-(2-Fluoro-benzyl)-3H-purin-6-yl]-furan-2-ylmethyl-amine] was run?
**A.** The IC50 was no less than 20 µM.

**Q.** `Clc1cccc(Cn2cnc(NCc3ccco3)c3ncnc2-3)c1` [[3-(3-Chloro-benzyl)-3H-purin-6-yl]-furan-2-ylmethyl-amine] was tested. Which IC50 did it give?
**A.** Its IC50 is no less than 20 µM.

**Q.** For `Clc1ccc(Cn2cnc(NCc3ccco3)c3ncnc2-3)cc1` [[3-(4-Chloro-benzyl)-3H-purin-6-yl]-furan-2-ylmethyl-amine], which IC50 is on record?
**A.** Its IC50 is no less than 20 µM.

**Q.** With `Fc1ccc(Cn2cnc(NCc3ccco3)c3ncnc2-3)cc1` [[3-(4-Fluoro-benzyl)-3H-purin-6-yl]-furan-2-ylmethyl-amine] as the compound, how does the IC50 read?
**A.** The IC50 was no less than 20 µM.

**Q.** Which IC50 does the source give for `Cc1cccc(Nc2ncn(Cc3c(Cl)cccc3Cl)c3ncnc2-3)c1C` [{3-[(2,6-Dichlorophenyl)methyl](3-hydropurin-6-yl)}(2,3-dimethylphenyl)amine] here?
**A.** Its IC50 is 1 to 20 µM.

**Q.** For `Cc1cccc(C)c1Nc1ncn(Cc2c(Cl)cccc2Cl)c2ncnc1-2` [{3-[(2,6-Dichlorophenyl)methyl](3-hydropurin-6-yl)}(2,6-dimethylphenyl)amine], which IC50 is on record?
**A.** The IC50 was 1 to 20 µM.

**Q.** Which IC50 does the source give for `Fc1ccccc1Nc1ncn(Cc2c(Cl)cccc2Cl)c2ncnc1-2` [{3-[(2,6-Dichlorophenyl)methyl](3-hydropurin-6-yl)}(2-fluorophenyl)amine] here?
**A.** Its IC50 is 1 to 20 µM.

**Q.** `COc1ccccc1Nc1ncn(Cc2c(Cl)cccc2Cl)c2ncnc1-2` [{3-[(2,6-Dichlorophenyl)methyl](3-hydropurin-6-yl)}(2-methoxyphenyl)amine] was tested. Which IC50 did it give?
**A.** The IC50 was 1 to 20 µM.

**Q.** For `Cc1ccccc1Nc1ncn(Cc2c(Cl)cccc2Cl)c2ncnc1-2` [{3-[(2,6-Dichlorophenyl)methyl](3-hydropurin-6-yl)}(2-methylphenyl)amine], which IC50 is on record?
**A.** The IC50 was 1 to 20 µM.

**Q.** Which IC50 does the source give for `Clc1cccc(Cl)c1Cn1cnc(Nc2ccccc2N2CCOCC2)c2ncnc1-2` [{3-[(2,6-Dichlorophenyl)methyl](3-hydropurin-6-yl)}(2-morpholin-4-ylphenyl)amine] here?
**A.** The IC50 was no less than 20 µM.

**Q.** Which IC50 does the source give for `Clc1cccc(Cl)c1Cn1cnc(NCCN2CCCCC2)c2ncnc1-2` [{3-[(2,6-Dichlorophenyl)methyl](3-hydropurin-6-yl)}(2-piperidylethyl)amine] here?
**A.** The IC50 was no less than 20 µM.

**Q.** How did the IC50 turn out when `Clc1cccc(Nc2ncn(Cc3c(Cl)cccc3Cl)c3ncnc2-3)c1` [{3-[(2,6-Dichlorophenyl)methyl](3-hydropurin-6-yl)}(3-chlorophenyl)amine] was run?
**A.** The IC50 was 1 to 20 µM.
